Assay results from patent US20060069132A1, “Azolecarboxamide herbicides” (priority 2004, published 2006).

Columns and labels:
Test in all cases: Test C postemergence herbicide test
chickweed = type: in vivo, Stellaria media; conditions: for Chickweed plant response rating: 500 g ai/ha
Description: At the same time, plants selected from these crop and weed species and also winter barley (Hordeum vulgare L.), blackgrass (Alopecurus myosuroides Huds.), canarygrass (Phalaris minor Retz.), chickweed (Stellaria media (L.) Vill.), downy bromegrass (Bromus tectorum L.), green foxtail (Setaria viridis (L.) Beauv.), Italian ryegrass (Lolium multiflorum Lam.), wheat (Triticum aestivum L.), wild oat (Avenafatua L.) and windgrass (Apera spica-venti (L.) Beauv.) were treated with postemergence applications of some of the test chemicals formulated in the same manner. Plants ranged in height from 2 to 18 cm (1- to 4-leaf stage) for postemergence treatments. Plant species in the flooded paddy test consisted of rice (Oryza sativa), smallflower umbrella sedge (Cyperus difformis L.), ducksalad (Heteranthera limosa (Sw.) Willd.) and barnyardgrass (Echinochloa crus-galli (L.) Beauv.) grown to the 2-leaf stage for testing. Treated plants and controls were maintained in a greenhouse for 12 to 14 days, after which time all species were compared to controls and visually evaluated. Plant response ratings, summarized in Table C, are based on a scale of 0 to 100 where 0 is no effect and 100 is complete control. A dash (-) response means no test result.

wild oat = type: in vivo, Avenafatua
Procedure, shortened: (§1)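 Postemergence sprays were applied to plants 2 to 18 cm tall (1- to 4-leaf stage); in the flooded paddy test, barnyardgrass was grown to the 2-leaf stage. After 12 to 14 days in a greenhouse, injury was visually rated against untreated controls on a 0–100 scale (100 = complete control).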

windgrass = type: in vivo, Apera spica-venti
Procedure, shortened: as §1

[1] = Postemergence, 125 g ai/ha, scale 0 to 100, 0 no effect, 100 complete control
[2] = Postemergence, 250 g ai/ha, scale 0 to 100, 0 no effect, 100 complete control
[3] = postemergence, 62 g ai/ha, scale 0 to 100
[4] = postemergence, 31 g ai/ha, scale 0 to 100
[5] = postemergence, 125 g ai/ha, scale 0 to 100
[6] = Postemergence, 500 g ai/ha, scale 0 to 100
[7] = Postemergence, 500 g ai/ha, scale 0 to 100, 0 no effect, 100 complete control

**Q.** Which “Plant response rating, Chickweed” value (chickweed; [1]) does the source give for `CCNC(=O)c1cccc(NC(=O)c2cc(C(C)(C)C)nn2CC(F)(F)F)c1` [Compound 31] here?
**A.** The value was 90.

**Q.** What about the “Plant response rating, Chickweed” value (chickweed; [2]) of the same compound?
**A.** Its value is 100.

**Q.** And the “Plant response rating, Chickweed” value (chickweed; [3])?
**A.** The value was 90.

**Q.** Which “Chickweed plant response rating” value (chickweed; Postemergence, scale 0 to 100) does the source give for `C=Cn1nc(C(C)(C)C)cc1C(=O)Nc1cccc(C(=O)N(CC)CC)c1` [Compound 34] here?
**A.** The value was 100.

**Q.** What about the “Plant response rating, Chickweed” value (chickweed; [1]) of the same compound?
**A.** The value was 50.

**Q.** What about the “Plant response rating, Chickweed” value (chickweed; [2]) of the same compound?
**A.** The value was 60.

**Q.** For `CCNC(=O)c1cccc(NC(=O)c2cc(C(C)(C)C)nn2CCF)c1` [Compound 35], which “Plant response rating, Chickweed” value (chickweed; [1]) is on record?
**A.** The value was 90.

**Q.** What about the “Plant response rating, Chickweed” value (chickweed; postemergence, 16 g ai/ha, scale 0 to 100) of the same compound?
**A.** The value was 70.

**Q.** And the “Plant response rating, Chickweed” value (chickweed; [4])?
**A.** The value was 70.

**Q.** And the “Plant response rating, Chickweed” value (chickweed; [3])?
**A.** The value was 80.

**Q.** `CCn1nc(C(C)(C)C)cc1C(=O)Nc1cccc(C(=O)NC2CC2)c1` [Compound 44] was tested. Which “Plant response rating, Chickweed” value (chickweed; [1]) did it give?
**A.** Its value is 90.

**Q.** And the “Plant response rating, Chickweed” value (chickweed; [2])?
**A.** The value was 90.

**Q.** What about the “Plant response rating, Chickweed” value (chickweed; [3]) of the same compound?
**A.** Its value is 90.

**Q.** For `CCn1nc(C(C)(C)C)cc1C(=O)Nc1cccc(C(=O)NCC2CC2)c1` [Compound 62], which “Plant response rating, Oat, Wild” value (wild oat; [2]) is on record?
**A.** The value was 50.

**Q.** And the “Plant response rating, Oat, Wild” value (wild oat; [5])?
**A.** The value was 40.

**Q.** And the “Plant response rating, Oat, Wild” value (wild oat; [3])?
**A.** Its value is 30.

**Q.** What about the “Plant response rating, Windgrass” value (windgrass; [2]) of the same compound?
**A.** The value was 50.

**Q.** What about the “Plant response rating, Windgrass” value (windgrass; [5]) of the same compound?
**A.** Its value is 40.

**Q.** What about the “Plant response rating, Windgrass” value (windgrass; [3]) of the same compound?
**A.** The value was 30.

**Q.** How did the “Plant response rating, Chickweed” value (chickweed; [2]) turn out when `CCOC(=O)c1cccc(NC(=O)c2cc(C(C)(C)C)nn2CC)c1` [Compound 80, ethyl 3-[[[3-(1,1-dimethylethyl)-1-ethyl-1H-pyrazol-5-yl]carbonyl]-amino]benzoate] was run?
**A.** The value was 100.

**Q.** What about the “Plant response rating, Chickweed” value (chickweed; [5]) of the same compound?
**A.** The value was 100.

**Q.** What about the “Plant response rating, Chickweed” value (chickweed; [4]) of the same compound?
**A.** Its value is 90.

**Q.** What about the “Plant response rating, Chickweed” value (chickweed; [3]) of the same compound?
**A.** Its value is 100.

**Q.** `CCn1nc(C(C)(C)C)cc1C(=O)Nc1cccc(C(=O)OCCF)c1` [Compound 82, 2-fluoroethyl 3-[[[3-(1,1-dimethylethyl)-1-ethyl-1H-pyrazol-5-yl]-carbonyl]amino]benzoate] was tested. Which “Chickweed plant response rating” value (chickweed; Postemergence, scale 0 to 100) did it give?
**A.** Its value is 100.

**Q.** What about the “Plant response rating, Chickweed” value (chickweed; [2]) of the same compound?
**A.** Its value is 100.

**Q.** What about the “Plant response rating, Chickweed” value (chickweed; [5]) of the same compound?
**A.** Its value is 95.

**Q.** What about the “Plant response rating, Chickweed” value (chickweed; [3]) of the same compound?
**A.** The value was 70.

**Q.** Which “Oat, Wild plant response rating” value (wild oat; [6]) does the source give for `CCCCOc1cccc(NC(=O)c2cc(C(C)(C)C)nn2CC)c1` [Compound 137] here?
**A.** The value was 50.

**Q.** And the “Plant response rating, Oat, Wild” value (wild oat; [2])?
**A.** The value was 40.

**Q.** And the “Plant response rating, Oat, Wild” value (wild oat; [5])?
**A.** Its value is 40.

**Q.** And the “Plant response rating, Oat, Wild” value (wild oat; [3])?
**A.** Its value is 20.

**Q.** What about the “Windgrass plant response rating” value (windgrass; [6]) of the same compound?
**A.** Its value is 60.

**Q.** What about the “Plant response rating, Windgrass” value (windgrass; [2]) of the same compound?
**A.** Its value is 50.

**Q.** And the “Plant response rating, Windgrass” value (windgrass; [5])?
**A.** The value was 50.

**Q.** And the “Plant response rating, Windgrass” value (windgrass; [3])?
**A.** The value was 30.

**Q.** Which “Chickweed plant response rating” value (chickweed; Postemergence, scale 0 to 100) does the source give for `C#CCNC(=O)c1cccc(NC(=O)c2cc(C(C)(C)C)nn2CC)n1` [Compound 147] here?
**A.** The value was 100.

**Q.** And the “Plant response rating, Chickweed” value (chickweed; [2])?
**A.** The value was 90.

**Q.** What about the “Plant response rating, Chickweed” value (chickweed; [5]) of the same compound?
**A.** Its value is 30.

**Q.** What about the “Plant response rating, Chickweed” value (chickweed; [3]) of the same compound?
**A.** The value was 5.

**Q.** Which “Chickweed plant response rating” value (chickweed; Postemergence, scale 0 to 100) does the source give for `CCc1nc(C(C)(C)C)sc1C(=O)Nc1cccc(C(=O)NCC2CC2)c1` [Compound 212] here?
**A.** Its value is 100.

**Q.** And the “Plant response rating, Chickweed” value (chickweed; [2])?
**A.** Its value is 80.

**Q.** And the “Plant response rating, Chickweed” value (chickweed; [5])?
**A.** Its value is 80.

**Q.** And the “Plant response rating, Chickweed” value (chickweed; [3])?
**A.** The value was 60.

**Q.** `CCOC(=O)c1cccc(NC(=O)c2cc(C3(C)CC3)nn2CC)c1` [Compound 295] was tested. Which “Plant response rating, Oat, Wild” value (wild oat; [2]) did it give?
**A.** The value was 50.

**Q.** What about the “Plant response rating, Oat, Wild” value (wild oat; [5]) of the same compound?
**A.** Its value is 50.

**Q.** And the “Plant response rating, Oat, Wild” value (wild oat; [3])?
**A.** The value was 50.

**Q.** And the “Plant response rating, Chickweed” value (chickweed; [2])?
**A.** The value was 100.

**Q.** And the “Plant response rating, Chickweed” value (chickweed; [5])?
**A.** The value was 100.

**Q.** What about the “Plant response rating, Chickweed” value (chickweed; [4]) of the same compound?
**A.** Its value is 85.

**Q.** And the “Plant response rating, Chickweed” value (chickweed; [3])?
**A.** Its value is 100.

**Q.** And the “Plant response rating, Windgrass” value (windgrass; [2])?
**A.** The value was 65.

**Q.** And the “Plant response rating, Windgrass” value (windgrass; [5])?
**A.** The value was 60.

**Q.** What about the “Plant response rating, Windgrass” value (windgrass; [3]) of the same compound?
**A.** Its value is 50.

**Q.** What does the source list for `CCn1nc(C2(C)CC2)cc1C(=O)Nc1cc(C(=O)N2CC=CC2)ccc1F` [Compound 301]?
**A.** Oat, Wild plant response rating (wild oat; [6]): 60; Plant response rating, Oat, Wild (wild oat; [2]): 75; Plant response rating, Oat, Wild (wild oat; [5]): 65; Plant response rating, Oat, Wild (wild oat; [3]): 45; Windgrass plant response rating (windgrass; [6]): 40; Plant response rating, Windgrass (windgrass; [2]): 35; Plant response rating, Windgrass (windgrass; [5]): 35; Plant response rating, Windgrass (windgrass; [3]): 35

**Q.** How did the “Chickweed plant response rating” value (chickweed; Postemergence, scale 0 to 100) turn out when `C=CCNC(=O)c1cccc(NC(=O)c2cc(C(C)(C)C)nn2C)n1` [Compound 318] was run?
**A.** The value was 80.

**Q.** And the “Plant response rating, Chickweed” value (chickweed; [2])?
**A.** Its value is 10.

**Q.** What about the “Plant response rating, Chickweed” value (chickweed; [5]) of the same compound?
**A.** The value was 0.

**Q.** What about the “Plant response rating, Chickweed” value (chickweed; [3]) of the same compound?
**A.** The value was 0.

**Q.** With `CCn1nc(C(C)(C)C)cc1C(=O)Nc1cc(OC(F)(F)F)ccc1F` [Compound 338] as the compound, how does the “Plant response rating, Oat, Wild” value (wild oat; [2]) read?
**A.** Its value is 50.

**Q.** And the “Plant response rating, Oat, Wild” value (wild oat; [7])?
**A.** The value was 60.

**Q.** What about the “Plant response rating, Oat, Wild” value (wild oat; [5]) of the same compound?
**A.** Its value is 45.

**Q.** And the “Plant response rating, Oat, Wild” value (wild oat; [3])?
**A.** Its value is 40.

**Q.** What about the “Plant response rating, Windgrass” value (windgrass; [5]) of the same compound?
**A.** The value was 15.

**Q.** What about the “Plant response rating, Windgrass” value (windgrass; [3]) of the same compound?
**A.** The value was 10.

**Q.** How did the “Plant response rating, Oat, Wild” value (wild oat; [7]) turn out when `CCn1nc(C(C)(C)C)cc1C(=O)Nc1cccc(OS(=O)(=O)CC)c1` [Compound 408] was run?
**A.** The value was 70.

**Q.** And the “Plant response rating, Oat, Wild” value (wild oat; [5])?
**A.** The value was 55.

**Q.** And the “Plant response rating, Oat, Wild” value (wild oat; [3])?
**A.** Its value is 45.

**Q.** And the “Plant response rating, Windgrass” value (windgrass; [7])?
**A.** The value was 65.

**Q.** What about the “Plant response rating, Windgrass” value (windgrass; [5]) of the same compound?
**A.** Its value is 45.

**Q.** What about the “Plant response rating, Windgrass” value (windgrass; [3]) of the same compound?
**A.** Its value is 40.
